The experiment concerns the target ATR kinase (full-length ATR) (Homo sapiens (Human), UniProt Q13535). Description: ATR inhibition assay (radioactive-phosphate incorporation). The experiment is classed as biochemical. The procedure, abridged: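 Ki(app) was fitted by non-linear regression to background-corrected initial rates. Full-length ATR (5 nM) phosphorylated 800 μM peptide using 10 μM [γ-33P]ATP at 25° C in Tris/HCl pH 7.5 buffer with MgCl2, DTT and 7% DMSO. After 10-minute compound pre-incubation and 24-hour reaction, phosphocellulose filters were scintillation counted.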

The mark [1] stands for this setting: Ki(app), 5 nM full-length ATR, 10 μM ATP, 25° C.

Each structure is given as a SMILES string. Where two headings read alike, the source gives them in different places.

The values that follow come from patent publication US10392391B2 (Vertex Pharmaceuticals Incorporated, priority 2012, dated 2019).

Sequence of ATR kinase (full-length ATR) (Q13535 whole entry): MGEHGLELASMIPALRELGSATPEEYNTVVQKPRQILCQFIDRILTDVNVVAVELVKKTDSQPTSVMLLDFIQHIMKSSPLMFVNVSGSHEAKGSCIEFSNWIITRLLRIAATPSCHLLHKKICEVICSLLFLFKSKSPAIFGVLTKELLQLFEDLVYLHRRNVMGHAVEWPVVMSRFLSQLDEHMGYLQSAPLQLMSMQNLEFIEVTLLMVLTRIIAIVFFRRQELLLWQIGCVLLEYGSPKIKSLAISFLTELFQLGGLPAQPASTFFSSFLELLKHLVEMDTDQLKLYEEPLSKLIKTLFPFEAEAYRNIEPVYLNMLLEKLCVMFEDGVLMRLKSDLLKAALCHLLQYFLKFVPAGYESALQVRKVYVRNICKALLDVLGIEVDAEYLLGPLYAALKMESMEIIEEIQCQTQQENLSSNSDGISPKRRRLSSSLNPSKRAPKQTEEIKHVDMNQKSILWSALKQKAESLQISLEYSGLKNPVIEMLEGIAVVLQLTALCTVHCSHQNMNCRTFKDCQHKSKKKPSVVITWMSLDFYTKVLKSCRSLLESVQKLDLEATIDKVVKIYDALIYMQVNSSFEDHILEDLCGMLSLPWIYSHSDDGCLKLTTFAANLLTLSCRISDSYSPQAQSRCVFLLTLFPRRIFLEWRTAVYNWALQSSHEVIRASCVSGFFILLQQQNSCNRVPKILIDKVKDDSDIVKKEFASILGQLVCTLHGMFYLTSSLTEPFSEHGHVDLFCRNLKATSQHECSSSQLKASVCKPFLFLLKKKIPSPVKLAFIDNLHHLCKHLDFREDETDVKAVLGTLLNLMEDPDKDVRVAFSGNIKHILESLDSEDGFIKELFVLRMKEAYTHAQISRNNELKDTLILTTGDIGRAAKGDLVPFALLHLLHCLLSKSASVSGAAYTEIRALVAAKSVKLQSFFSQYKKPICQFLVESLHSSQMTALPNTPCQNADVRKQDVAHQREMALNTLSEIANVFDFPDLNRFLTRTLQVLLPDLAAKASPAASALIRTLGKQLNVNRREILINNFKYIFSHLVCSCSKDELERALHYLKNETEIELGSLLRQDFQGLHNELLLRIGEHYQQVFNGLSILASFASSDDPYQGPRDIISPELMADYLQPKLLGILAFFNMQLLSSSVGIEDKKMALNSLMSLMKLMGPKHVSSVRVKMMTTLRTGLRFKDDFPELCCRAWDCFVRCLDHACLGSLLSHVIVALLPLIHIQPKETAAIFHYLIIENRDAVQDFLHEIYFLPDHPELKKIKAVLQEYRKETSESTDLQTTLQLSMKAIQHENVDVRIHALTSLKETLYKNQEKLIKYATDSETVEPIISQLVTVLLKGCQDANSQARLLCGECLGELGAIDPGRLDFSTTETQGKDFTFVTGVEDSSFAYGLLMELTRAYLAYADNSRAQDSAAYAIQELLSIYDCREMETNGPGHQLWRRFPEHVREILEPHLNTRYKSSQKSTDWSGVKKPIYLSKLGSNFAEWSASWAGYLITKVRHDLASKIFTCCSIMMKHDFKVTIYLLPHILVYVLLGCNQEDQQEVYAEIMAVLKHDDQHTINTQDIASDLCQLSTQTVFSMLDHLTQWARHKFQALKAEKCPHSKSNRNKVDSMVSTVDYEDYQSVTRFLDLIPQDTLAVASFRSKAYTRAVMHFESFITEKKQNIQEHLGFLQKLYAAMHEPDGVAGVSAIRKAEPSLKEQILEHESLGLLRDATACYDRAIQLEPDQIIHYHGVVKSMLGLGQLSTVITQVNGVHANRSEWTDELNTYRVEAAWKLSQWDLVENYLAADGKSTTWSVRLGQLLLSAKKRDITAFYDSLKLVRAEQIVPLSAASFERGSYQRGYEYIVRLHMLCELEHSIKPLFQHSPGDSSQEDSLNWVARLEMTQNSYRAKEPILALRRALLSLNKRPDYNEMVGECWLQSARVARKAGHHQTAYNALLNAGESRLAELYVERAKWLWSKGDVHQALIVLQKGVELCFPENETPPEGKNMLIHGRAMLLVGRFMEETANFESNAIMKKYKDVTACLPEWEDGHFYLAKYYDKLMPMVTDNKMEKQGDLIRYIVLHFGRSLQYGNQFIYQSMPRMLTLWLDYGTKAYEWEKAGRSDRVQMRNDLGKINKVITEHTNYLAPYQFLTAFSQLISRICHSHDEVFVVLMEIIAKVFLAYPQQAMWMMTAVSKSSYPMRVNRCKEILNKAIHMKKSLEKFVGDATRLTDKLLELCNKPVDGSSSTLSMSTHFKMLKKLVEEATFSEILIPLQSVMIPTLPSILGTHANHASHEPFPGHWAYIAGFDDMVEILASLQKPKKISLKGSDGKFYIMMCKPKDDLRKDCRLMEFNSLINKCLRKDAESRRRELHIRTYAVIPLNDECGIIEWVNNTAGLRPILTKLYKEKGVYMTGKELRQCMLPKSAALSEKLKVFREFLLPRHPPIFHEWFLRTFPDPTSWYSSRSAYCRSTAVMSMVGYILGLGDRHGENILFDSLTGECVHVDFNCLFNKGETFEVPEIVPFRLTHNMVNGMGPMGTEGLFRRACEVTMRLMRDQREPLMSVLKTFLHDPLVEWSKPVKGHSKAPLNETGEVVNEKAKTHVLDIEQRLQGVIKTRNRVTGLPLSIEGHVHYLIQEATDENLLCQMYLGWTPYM

With `CS(=O)(=O)c1ccc(-c2ccncc2NC(=O)c2c(N)nn3cc(F)cnc23)cc1` [I-C-61, 2-amino-6-fluoro-N-(4-(4-(methylsulfonyl)phenyl)pyridin-3-yl)pyrazolo[1,5-a]pyrimidine-3-carboxamide], the Ki under setting [1] fell in the range of 10 to 1000 nM.
Turning to `C[N+]1([O-])CCN(C(=O)C2CCN(c3c(F)cncc3NC(=O)c3c(N)nn4cc(F)cnc34)CC2)CC1` [I-G-95, 4-(1-(3-(2-amino-6-fluoropyrazolo[1,5-a]pyrimidine-3-carboxamido)-5-fluoropyridin-4-yl)piperidine-4-carbonyl)-1-methylpiperazine 1-oxide], the Ki lay within 10 to 1000 nM.
`Nc1nn2cc(Cl)cnc2c1C(=O)Nc1cnccc1OCCCO` [I-O-53, 2-amino-6-chloro-N-(4-(3-hydroxypropoxy)pyridin-3-yl)pyrazolo[1,5-a]pyrimidine-3-carboxamide]: under setting [1], the Ki lay in the range of 10 to 1000 nM.
Same read-out and setting: next, `Nc1nn2cc(F)cnc2c1C(=O)Nc1cnccc1N1CCN([C@@H]2CCOC2)CC1` [I-N-10, (R)-2-amino-6-fluoro-N-(4-(4-(tetrahydrofuran-3-yl)piperazin-1-yl)pyridin-3-yl)pyrazolo[1,5-a]pyrimidine-3-carboxamide]: 10 to 1000 nM.
Consider `CN(C)C(=O)C1CCN(c2ccncc2NC(=O)c2c(N)nn3cc(F)cnc23)CC1` [I-G-2, 2-amino-N-(4-(4-(dimethylcarbamoyl)piperidin-1-yl)pyridin-3-yl)-6-fluoropyrazolo[1,5-a]pyrimidine-3-carboxamide], for which the Ki under setting [1] fell in the range of 10 to 1000 nM.
On to `Nc1nn2cc(F)cnc2c1C(=O)Nc1cncc(F)c1N1CCC(C(=O)N2CCC(N3CCCCC3)CC2)CC1` [I-G-60, N-(4-(4-([1,4′-bipiperidine]-1′-carbonyl)piperidin-1-yl)-5-fluoropyridin-3-yl)-2-amino-6-fluoropyrazolo[1,5-a]pyrimidine-3-carboxamide], for which the Ki under setting [1] was 10 to 1000 nM.
As for `Nc1nn2cc(F)cnc2c1C(=O)Nc1cncc2c1CCNC2` [I-C-7, 2-amino-6-fluoro-N-(5,6,7,8-tetrahydro-2,7-naphthyridin-4-yl)pyrazolo[1,5-a]pyrimidine-3-carboxamide], the Ki under setting [1] was in the range of 10 to 1000 nM.
Still for that read-out and setting: next, `Nc1nn2cc(F)cnc2c1C(=O)Nc1cnccc1-c1ccc(C(=O)N2CCC(N3CCCC3)CC2)nc1` [I-C-53, 2-amino-6-fluoro-N-(6-(4-(pyrrolidin-1-yl)piperidine-1-carbonyl)-[3,4′-bipyridin]-3′-yl)pyrazolo[1,5-a]pyrimidine-3-carboxamide]: 10 to 1000 nM.
With `Nc1nn2cc(Cl)cnc2c1C(=O)Nc1cnccc1-n1ccnc1` [I-N-29, N-(4-(1H-imidazol-1-yl)pyridin-3-yl)-2-amino-6-chloropyrazolo[1,5-a]pyrimidine-3-carboxamide], the Ki under setting [1] lay in the range of 10 to 1000 nM.
Take `Nc1nn2cc(F)cnc2c1C(=O)Nc1cnccc1-n1cccn1` [I-N-26, N-(4-(1H-pyrazol-1-yl)pyridin-3-yl)-2-amino-6-fluoropyrazolo[1,5-a]pyrimidine-3-carboxamide]: the Ki under setting [1] lay in the range of 10 to 1000 nM.
Consider `CC(=O)N1CCCC12CCN(c1ccncc1NC(=O)c1c(N)nn3cc(F)cnc13)CC2` [I-N-262, N-(4-(1-acetyl-1,8-diazaspiro[4.5]decan-8-yl)pyridin-3-yl)-2-amino-6-fluoropyrazolo[1,5-a]pyrimidine-3-carboxamide], for which the Ki under setting [1] lay in the range of 10 to 1000 nM.
On to `Nc1nn2cc(F)cnc2c1C(=O)Nc1cncc(F)c1N1CCC(CN2CCCC2=O)CC1` [I-N-213, 2-amino-6-fluoro-N-(5-fluoro-4-(4-((2-oxopyrrolidin-1-yl)methyl)piperidin-1-yl)pyridin-3-yl)pyrazolo[1,5-a]pyrimidine-3-carboxamide], for which, under setting [1], the Ki is 10 to 1000 nM.
For `Nc1nn2cc(F)cnc2c1C(=O)Nc1cncc(F)c1N1CCC(C(=O)N2CCN3CC[C@@H]2C3)CC1` [I-G-71, N-(4-(4-((5R)-1,4-diazabicyclo[3.2.1]octane-4-carbonyl)piperidin-1-yl)-5-fluoropyridin-3-yl)-2-amino-6-fluoropyrazolo[1,5-a]pyrimidine-3-carboxamide], under setting [1], the Ki was in the range of 10 to 1000 nM.
Same read-out and setting: next, `Nc1nn2cc(F)cnc2c1C(=O)Nc1cnccc1-c1cccnc1O` [I-C-32, 2-amino-6-fluoro-N-(2-hydroxy-[3,4′-bipyridin]-3′-yl)pyrazolo[1,5-a]pyrimidine-3-carboxamide]: 10 to 1000 nM.
In the case of `CS(=O)(=O)C1CCCN(c2ccncc2NC(=O)c2c(N)nn3cc(F)cnc23)C1` (centres unmarked) [I-N-221, 2-amino-6-fluoro-N-(4-(3-(methylsulfonyl)piperidin-1-yl)pyridin-3-yl)pyrazolo[1,5-a]pyrimidine-3-carboxamide], the Ki under setting [1] lay in the range of 10 to 1000 nM.
In the case of `C[C@@H]1CN(C2COC2)CCN1c1ccncc1NC(=O)c1c(N)nn2cc(F)cnc12` [I-N-23, (R)-2-amino-6-fluoro-N-(4-(2-methyl-4-(oxetan-3-yl)piperazin-1-yl)pyridin-3-yl)pyrazolo[1,5-a]pyrimidine-3-carboxamide], the Ki under setting [1] was in the range of 10 to 1000 nM.
As for `Nc1nn2cc(F)cnc2c1C(=O)Nc1cnccc1N1CCN2CCOC[C@@H]2C1` [I-N-115, (S)-2-amino-6-fluoro-N-(4-(hexahydropyrazino[2,1-c][1,4]oxazin-8(1H)-yl)pyridin-3-yl)pyrazolo[1,5-a]pyrimidine-3-carboxamide], under setting [1], the Ki was in the range of 10 to 1000 nM.
With `COCCN(C)C(=O)C1CCN(c2c(F)cncc2NC(=O)c2c(N)nn3cc(F)cnc23)CC1` [I-G-40, 2-amino-6-fluoro-N-(5-fluoro-4-(4-((2-methoxyethyl)(methyl)carbamoyl)piperidin-1-yl)pyridin-3-yl)pyrazolo[1,5-a]pyrimidine-3-carboxamide], under setting [1], the Ki lay within 10 to 1000 nM.
Same read-out and setting: the result for `Nc1nn2cc(F)cnc2c1C(=O)Nc1cncc(F)c1N1CCC(C(=O)N2CC(N3CCCC3)C2)CC1` [I-G-43, 2-amino-6-fluoro-N-(5-fluoro-4-(4-(3-(pyrrolidin-1-yl)azetidine-1-carbonyl)piperidin-1-yl)pyridin-3-yl)pyrazolo[1,5-a]pyrimidine-3-carboxamide] reads 10 to 1000 nM; that for `Cn1nncc1-c1ccncc1NC(=O)c1c(N)nn2cc(F)cnc12` [I-C-72, 2-amino-6-fluoro-N-(4-(1-methyl-1H-1,2,3-triazol-5-yl)pyridin-3-yl)pyrazolo[1,5-a]pyrimidine-3-carboxamide], 10 to 1000 nM; that for `Nc1nn2cc(F)cnc2c1C(=O)Nc1cnccc1N1CCC(C(=O)N2CCC3(COC3)C2)CC1` [I-G-84, N-(4-(4-(2-oxa-6-azaspiro[3.4]octane-6-carbonyl)piperidin-1-yl)pyridin-3-yl)-2-amino-6-fluoropyrazolo[1,5-a]pyrimidine-3-carboxamide], 10 to 1000 nM.
In the case of `Nc1nn2cc(F)cnc2c1C(=O)Nc1cnccc1N1CCN2CCC[C@H]2C1` [I-N-21, (S)-2-amino-6-fluoro-N-(4-(hexahydropyrrolo[1,2-a]pyrazin-2(1H)-yl)pyridin-3-yl)pyrazolo[1,5-a]pyrimidine-3-carboxamide], under setting [1], the Ki was 10 to 1000 nM.
Regarding `CN1CCC[C@@H]1C(=O)N1CCN(c2c(F)cncc2NC(=O)c2c(N)nn3cc(F)cnc23)CC1` [I-N-181, (R)-2-amino-6-fluoro-N-(5-fluoro-4-(4-(1-methylpyrrolidine-2-carbonyl)piperazin-1-yl)pyridin-3-yl)pyrazolo[1,5-a]pyrimidine-3-carboxamide], the Ki under setting [1] fell in the range of 10 to 1000 nM.
